Patent US5792775A (priority 1996, dated 1998)
Like-named read-outs stand apart in the source and are kept apart here.

Tests used:
[1] = system: locomotor activity in mice; assay: Locomotor (ambulatory) activity; assay type: in vivo, Swiss Webster mice; settings: i.p., FIGS. 5-8
From the text: Ambulatory activity of Male Swiss Webster mice (Taconic Farms) were studied in 40 cm^3 clear acrylic chambers. The acrylic chambers were placed inside monitors (Omnitech Electronics, Columbus, Ohio) that were equipped with light sensitive detectors, spaced 2.5 cm apart along two perpendicular walls. Mounted on the opposing walls were infrared light sources that were directed at the detectors. One count of horizontal activity was registered each time the subject interrupted two successive beams. Repetitive interruptions of the same beam due to behaviors, such as head bobbing or grooming, were not counted. Mice were injected and immediately placed in the apparatus for 60 min. Injections were administered i.p. in volumes of 1 mL/ 100 g. Each dose was studied in eight mice, and mice were used only once.
Horizontal activity counts are shown for the first 30 min of the session in which the maximal stimulation of activity was obtained. Each dose-effect curve was analyzed using standard analysis of variance (ANOVA) and post-hoc testing determine significance of effects at individual doses.

[2] = animal models, literature; cited from earlier work
[3] = target: norepinephrine transporter (NET) (Rattus norvegicus, UniProt Q63380); assay: biochemical; assay type: binding; settings: for inhibition at 10 µM: read-out: NET (% I@10 μM)
[4] = system: norepinephrine transporter (NET); assay: biochemical; assay type: binding; settings: DAT vs. NET
[5] = target: serotonin transporter (5HTT) (Rattus norvegicus, UniProt P31652); assay: Serotonin transporter binding ([^3 H]citalopram), NOVASCREEN; settings: for inhibition at 10 µM: read-out: 5HTT (% I@10 μM)
From the text: (§1) Serotonin (5-HTT), norepinephrine transporter (NET) and muscarinic m1 and m2 receptor binding data were provided by NOVASCREEN.

[6] = target: T1, dopamine transporter (DAT) (Rattus norvegicus, UniProt P23977); assay: Displacement of [^3 H]WIN 35,428 binding (Dopamine Transporter Binding Assay); settings: Table III; displacement of [^3 H]WIN 35,428, rat caudate putamen; % error in parentheses
T1 construct: brains removed to an ice-cooled dish for dissection of the caudate putamen; from tissue; host or cells: rat caudate putamen, washed membranes of male Sprague-Dawley rats (Taconic)

muscarinic m1 receptors = target: T2, muscarinic m1 receptors (Rattus norvegicus, UniProt P08482); assay: biochemical; assay type: binding; settings: Table III; read-out: m1, Ki
T2 sequence (P08482 1-460): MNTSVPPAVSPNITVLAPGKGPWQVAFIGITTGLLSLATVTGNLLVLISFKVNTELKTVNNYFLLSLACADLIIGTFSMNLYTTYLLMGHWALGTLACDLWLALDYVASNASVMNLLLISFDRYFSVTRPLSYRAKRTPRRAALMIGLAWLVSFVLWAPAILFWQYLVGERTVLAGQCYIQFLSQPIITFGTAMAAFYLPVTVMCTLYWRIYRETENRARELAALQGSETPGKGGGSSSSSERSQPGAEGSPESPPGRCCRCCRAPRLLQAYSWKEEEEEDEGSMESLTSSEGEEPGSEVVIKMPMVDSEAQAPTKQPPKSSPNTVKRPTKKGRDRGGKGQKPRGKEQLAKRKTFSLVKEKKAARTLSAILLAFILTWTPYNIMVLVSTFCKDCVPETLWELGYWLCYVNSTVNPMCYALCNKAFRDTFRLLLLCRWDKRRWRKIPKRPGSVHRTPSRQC

muscarinic m2 receptors = target: T3, muscarinic m2 receptors (Rattus norvegicus, UniProt P10980); assay: Muscarinic m2 receptor binding ([^3 H]AFDX 384), NOVASCREEN; settings: Table III
T3 sequence (P10980 1-466): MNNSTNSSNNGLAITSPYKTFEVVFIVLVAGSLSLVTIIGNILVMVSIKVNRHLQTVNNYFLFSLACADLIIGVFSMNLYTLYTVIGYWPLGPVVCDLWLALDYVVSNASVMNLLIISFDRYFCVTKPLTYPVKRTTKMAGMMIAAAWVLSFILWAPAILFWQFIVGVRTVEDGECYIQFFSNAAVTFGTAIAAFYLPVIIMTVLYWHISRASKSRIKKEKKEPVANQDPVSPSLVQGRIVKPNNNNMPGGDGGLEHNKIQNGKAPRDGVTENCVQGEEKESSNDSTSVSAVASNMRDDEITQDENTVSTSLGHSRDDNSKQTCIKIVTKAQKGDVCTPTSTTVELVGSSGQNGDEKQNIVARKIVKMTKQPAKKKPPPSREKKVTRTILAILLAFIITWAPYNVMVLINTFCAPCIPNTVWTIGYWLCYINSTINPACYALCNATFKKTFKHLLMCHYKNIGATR
From the text: as §1

[7] = system: dopamine uptake, rat caudate putamen; assay type: biochemical; settings: Table V; rat caudate putamen; read-out: [^3 H]DA Uptake Inhibition IC50
[8] = target: T1, dopamine transporter (DAT); settings: read-out: DAT Ki, nM (% error); cited from earlier work

Sequence of norepinephrine transporter (NET) (Rattus norvegicus, UniProt Q63380) (Q63380 1-617): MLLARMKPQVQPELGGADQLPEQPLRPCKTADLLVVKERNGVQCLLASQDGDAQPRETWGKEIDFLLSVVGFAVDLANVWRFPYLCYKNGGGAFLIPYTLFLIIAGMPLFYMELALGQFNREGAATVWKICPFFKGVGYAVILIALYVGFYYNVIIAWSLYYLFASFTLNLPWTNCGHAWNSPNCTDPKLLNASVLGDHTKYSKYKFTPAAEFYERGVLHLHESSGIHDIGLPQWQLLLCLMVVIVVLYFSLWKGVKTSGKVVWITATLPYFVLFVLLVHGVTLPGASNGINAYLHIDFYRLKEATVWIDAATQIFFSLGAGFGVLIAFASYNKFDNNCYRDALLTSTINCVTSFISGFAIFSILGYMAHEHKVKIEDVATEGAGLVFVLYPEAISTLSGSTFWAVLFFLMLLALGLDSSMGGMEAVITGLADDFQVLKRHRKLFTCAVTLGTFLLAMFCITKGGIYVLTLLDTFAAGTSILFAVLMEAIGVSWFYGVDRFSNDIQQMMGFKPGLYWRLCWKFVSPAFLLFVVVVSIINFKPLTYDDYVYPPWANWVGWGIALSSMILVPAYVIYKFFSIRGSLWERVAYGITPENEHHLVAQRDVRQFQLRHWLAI
Sequence of serotonin transporter (5HTT) (P31652 whole entry): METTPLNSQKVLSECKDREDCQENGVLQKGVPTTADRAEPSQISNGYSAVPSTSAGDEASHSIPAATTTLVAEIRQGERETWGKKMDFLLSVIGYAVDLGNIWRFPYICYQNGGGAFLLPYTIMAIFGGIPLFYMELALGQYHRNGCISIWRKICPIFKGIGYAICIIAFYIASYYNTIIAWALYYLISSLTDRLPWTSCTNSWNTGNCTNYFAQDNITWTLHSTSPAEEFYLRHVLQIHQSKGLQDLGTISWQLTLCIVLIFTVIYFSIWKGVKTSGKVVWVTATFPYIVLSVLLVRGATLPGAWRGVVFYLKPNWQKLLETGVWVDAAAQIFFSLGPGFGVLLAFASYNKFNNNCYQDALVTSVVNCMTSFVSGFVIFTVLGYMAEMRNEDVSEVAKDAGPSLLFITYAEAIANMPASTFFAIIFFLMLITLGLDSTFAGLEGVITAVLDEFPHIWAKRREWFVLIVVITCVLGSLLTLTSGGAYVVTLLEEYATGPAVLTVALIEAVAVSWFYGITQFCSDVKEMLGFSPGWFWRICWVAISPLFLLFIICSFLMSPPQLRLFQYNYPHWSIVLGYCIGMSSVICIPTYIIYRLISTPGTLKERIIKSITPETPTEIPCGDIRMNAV
T1 sequence (P23977 whole entry): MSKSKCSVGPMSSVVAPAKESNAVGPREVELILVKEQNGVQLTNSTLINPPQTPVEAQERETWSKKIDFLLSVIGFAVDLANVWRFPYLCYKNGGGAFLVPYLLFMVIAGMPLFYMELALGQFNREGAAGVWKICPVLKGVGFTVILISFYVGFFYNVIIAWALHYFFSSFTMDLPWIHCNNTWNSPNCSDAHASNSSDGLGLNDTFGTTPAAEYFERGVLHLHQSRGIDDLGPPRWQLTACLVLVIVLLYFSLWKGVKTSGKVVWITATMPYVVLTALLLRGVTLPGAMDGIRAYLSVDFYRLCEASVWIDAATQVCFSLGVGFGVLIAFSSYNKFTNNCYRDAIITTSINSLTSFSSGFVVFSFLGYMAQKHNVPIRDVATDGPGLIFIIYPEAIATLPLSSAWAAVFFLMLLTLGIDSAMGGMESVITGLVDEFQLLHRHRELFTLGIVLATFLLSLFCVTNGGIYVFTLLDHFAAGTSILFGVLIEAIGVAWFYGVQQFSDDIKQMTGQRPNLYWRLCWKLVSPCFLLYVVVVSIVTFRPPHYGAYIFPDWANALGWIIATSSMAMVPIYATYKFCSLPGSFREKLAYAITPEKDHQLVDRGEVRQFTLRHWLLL

## CN1[C@@H]2CC[C@H]1C[C@@H](OC(c1ccccc1)c1ccccc1)C2 [Compound 2, 3α-(diphenylmethoxy)-1αH,5αH-tropane]
[1]
  stimulation of locomotor activity: do not produce locomotor stimulant activity
[2]
  CNS stimulatory activity: exhibits CNS stimulatory activity in animal models

## CN1[C@@H]2CC[C@H]1C[C@@H](OC(c1ccc(F)cc1)c1ccc(F)cc1)C2 [Compound 7c, 4',4"-difluoro-3α-(diphenylmethoxy)tropane]
[3]
  Ki: > 8.5 µM
  inhibition at 10 µM: 30%
[3]; read-out: NET, Ki, Table IV
  Ki: > 8.5 µM
[4]
  potency at dopamine transporter as compared to norepinephrine transporter: > 700 fold
[5]; Table III, footnote d, read-out: 5HTT Ki value in nM (bracketed)
  Ki: > 2440 nM
[5]
  inhibition at 10 µM: 62%

## CCc1ccc(C(O[C@H]2C[C@H]3CC[C@@H](C2)N3C)c2ccccc2)cc1 (stereo partly drawn) [Compound 7q]
[6]
  Ki: 520 nM
[3]
  inhibition at 10 µM: 32.7%
[5]
  inhibition at 10 µM: 42.7%
Muscarinic m1 receptors
  Ki: 0.0126 µM
Muscarinic m2 receptors
  Ki: 0.703 µM
[7]
  IC50: 0.984 µM

## CN1[C@@H]2CC[C@H]1C[C@@H](OC(c1ccccc1)c1ccc(O)cc1)C2 (stereo partly drawn) [Compound 7r, 3α-4'-Hydroxy-(diphenylmethoxy)tropane]
[6]
  Ki: 297 nM
[3]
  inhibition at 10 µM: 27.3%
[5]
  inhibition at 10 µM: 23.3%
Muscarinic m1 receptors
  Ki: 0.0021 µM
Muscarinic m2 receptors
  Ki: 0.0177 µM
[7]
  IC50: 0.677 µM

## CN1[C@@H]2CC[C@H]1C[C@H](OC(c1ccccc1)c1ccc(Cl)cc1)C2 (stereo partly drawn) [Compound 10, 3β-4'-Chloro-(diphenylmethoxy)tropane]
[3]
  inhibition at 10 µM: 27.9%
[5]
  inhibition at 10 µM: 37.2%
[7]
  IC50: 3.52 µM
[8]
  Ki: 854 nM
